Literature values in patent US20030136407A1, “Liquid composition to be vaporized for inhibiting increase in blood sugar level, vaporizer for the same and use of the same” (priority 1999, published 2003).

System: Ehrlich Ascites Tumour Cells
Conditions: in vitro; Chem. Pharm. Bull. 41(12) 2129-2131 (1993)

## C[C@H]1[C@H](C)CC[C@]2(C(=O)O)CC[C@]3(C)C(=CC[C@@H]4[C@@]5(C)C[C@@H](O)[C@H](O)C(C)(C)[C@@H]5CC[C@]43C)[C@H]12 [corosolic acid]
  activation of the mobility of grape sugar: activates the mobility of grape sugar
